Paper PMC6152318 (Molecules : A Journal of Synthetic Chemistry and Natural …, 2017)

What was measured:
[1] = molecular target: T1, Human serum albumin (HSA) (Homo sapiens, UniProt P02768); test: Binding constants by quenching of HSA tryptophan fluorescence; details: for K ± S.D. (binding constant): 6 μM HSA, pH 7.4, 25 °C, excitation 295 nm, 1:1 binding model
T1 construct: Fatty acid free HSA and warfarin sodium were purchased from Sigma-Aldrich; purchased Sigma-Aldrich (St. Louis, MO, USA)
Experimental: In all experiments, the final co-solvent concentration was held below 5%. This was done to prevent conformational changes of HSA due to changes in dielectric constant of the solvent.
Steady-state fluorescence was recorded using a thermostated Safas Xenius fluorometer (Safas Monaco, Monaco) with an integrated stirrer. All studies were performed at 25 ± 1 °C using 10 nm excitation and emission slit widths. […] Measurements were performed in duplicate.
A stock solution of a single ligand was gradually added via syringe to a 2 mL of a 6 μM HSA solution placed in a quartz cell. Measurements were conducted at the excitation wavelength of 295 nm and emission was recorded in the 310–400 nm range enabling calculations of corresponding binding constants. […] Binding constants were determined according to Dufour and Dangles. A Scatchard analysis was performed assuming n identical binding sites on HSA. Values for binding constant (K), molar fluorescence intensity of the complex (f), and the stoichiometric coefficient (n) were estimated by fitting the F vs. Lt curves against Equations (1) and (2) using a least-square regression program Scientist (MicroMath, Salt Lake City, UT, USA), where F is fluorescence intensity, [L] the free ligand concentration, [Lt] the total ligand concentration, and c the total albumin concentration. […] In all cases, the inner filter effect was taken into account by using absorption of free ligands at excitation and emission wavelengths (εex and εem, respectively) (Equation (3)), where Fcorr is the fluorescence corrected for the inner filter effect, F0 is the measured fluorescence, ε is the sum of εex and εem, l = 0.65 is the optical path and c is the flavonoid concentration. (1) Fcorr=fcnK[L]/1+K[L] (2) [Lt]=[L](1+ncK/1+K[L]) (3) F0=Fcorr×10^−εlc

HSA [2] = details: of its intensity without warfarin; cited from earlier work
[3] = molecular target: Human serum albumin (HSA) IIA binding site (Homo sapiens, UniProt P02768); test: Flavonoid fluorescence (excitation 450 nm) on HSA pre-saturated with warfarin (simultaneous binding / displacement)
Experimental: HSA was freshly dissolved in Dulbecco’s phosphate-buffered saline pH 7.4 (137 mM sodium chloride, 2.7 mM potassium chloride, 8.1 mM disodium hydrogen phosphate, 1.47 mM potassium dihydrogen phosphate) immediately before measurements. […]. In all experiments, the final co-solvent concentration was held below 5%. This was done to prevent conformational changes of HSA due to changes in dielectric constant of the solvent.
Steady-state fluorescence was recorded using a thermostated Safas Xenius fluorometer (Safas Monaco, Monaco) with an integrated stirrer. All studies were performed at 25 ± 1 °C using 10 nm excitation and emission slit widths. […] Higher concentrations of HSA and ligands were not used due to poor solubility of ligands and high influence of ligand absorption. Measurements were performed in duplicate.

[4] = Flavonoid fluorescence in buffer solution without HSA
HSA [5] = details: cited from earlier work
[6] = HSA 0-92% saturated with warfarin

T1 sequence (P02768 25-609): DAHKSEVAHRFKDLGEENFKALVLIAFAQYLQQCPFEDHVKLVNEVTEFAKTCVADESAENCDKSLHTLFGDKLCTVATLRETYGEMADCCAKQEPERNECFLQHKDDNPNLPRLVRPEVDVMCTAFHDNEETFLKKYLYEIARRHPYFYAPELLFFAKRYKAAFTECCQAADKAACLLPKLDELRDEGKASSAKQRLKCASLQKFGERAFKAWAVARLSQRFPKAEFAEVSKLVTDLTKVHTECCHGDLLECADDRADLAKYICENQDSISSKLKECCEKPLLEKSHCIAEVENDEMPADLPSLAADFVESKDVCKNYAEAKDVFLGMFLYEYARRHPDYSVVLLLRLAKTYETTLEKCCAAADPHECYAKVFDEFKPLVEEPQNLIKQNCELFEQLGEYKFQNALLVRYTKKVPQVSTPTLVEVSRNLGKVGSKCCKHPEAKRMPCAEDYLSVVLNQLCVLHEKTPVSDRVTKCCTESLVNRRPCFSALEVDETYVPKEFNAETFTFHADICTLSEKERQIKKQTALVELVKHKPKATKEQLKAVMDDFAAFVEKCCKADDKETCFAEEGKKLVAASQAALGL
Chain of Human serum albumin (HSA) IIA binding site (P02768 25-609): as above

## O=c1cc(-c2ccc(O)c(O)c2)oc2cc(O[C@@H]3O[C@H](CO)[C@@H](O)[C@H](O)[C@H]3O)cc(O)c12 [Cynaroside]
[1]
  K ± S.D. (binding constant): 4.20 ± 0.25 × 10^4 M^−1

## O=c1c(O)c(-c2ccc(O)c(O)c2)oc2cc(O)cc(O)c12 [Quercetin]
HSA [2]
  Relative STD-NMR signal intensity in presence of warfarin: ~ 40%
[3]; [6]
  Effect of warfarin on flavonoid Fmax (maximum fluorescence): slightly decreased
  Effect of warfarin on flavonoid cmax (concentration needed to achieve Fmax): slight increase
[3]; flavonoid 2,00 uM, 0% occupied HSA
  Absolute fluorescence intensity: 14,1006
[3]; flavonoid 2,00 uM, 22% occupied HSA
  Absolute fluorescence intensity: 14,3985
[3]; flavonoid 2,00 uM, 38% occupied HSA
  Absolute fluorescence intensity: 15,6001
[3]; flavonoid 2,00 uM, 63% occupied HSA
  Absolute fluorescence intensity: 14,9774
[3]; flavonoid 2,00 uM, 92% occupied HSA
  Absolute fluorescence intensity: 12,2760
[3]; flavonoid 4,00 uM, 0% occupied HSA
  Absolute fluorescence intensity: 18,1924
[3]; flavonoid 4,00 uM, 22% occupied HSA
  Absolute fluorescence intensity: 19,1798
[3]; flavonoid 4,00 uM, 38% occupied HSA
  Absolute fluorescence intensity: 20,1073
[3]; flavonoid 4,00 uM, 63% occupied HSA
  Absolute fluorescence intensity: 20,0687
[3]; flavonoid 4,00 uM, 92% occupied HSA
  Absolute fluorescence intensity: 16,0796
[3]; flavonoid 6,00 uM, 0% occupied HSA
  Absolute fluorescence intensity: 21,7864
[3]; flavonoid 6,00 uM, 22% occupied HSA
  Absolute fluorescence intensity: 22,8342
[3]; flavonoid 6,00 uM, 38% occupied HSA
  Absolute fluorescence intensity: 23,2658
[3]; flavonoid 6,00 uM, 63% occupied HSA
  Absolute fluorescence intensity: 23,0451
[3]; flavonoid 6,00 uM, 92% occupied HSA
  Absolute fluorescence intensity: 18,9492
[3]; flavonoid 7,99 uM, 0% occupied HSA
  Absolute fluorescence intensity: 25,2012
[3]; flavonoid 7,99 uM, 22% occupied HSA
  Absolute fluorescence intensity: 26,8970
[3]; flavonoid 7,99 uM, 38% occupied HSA
  Absolute fluorescence intensity: 26,0412
[3]; flavonoid 7,99 uM, 63% occupied HSA
  Absolute fluorescence intensity: 25,4057
[3]; flavonoid 7,99 uM, 92% occupied HSA
  Absolute fluorescence intensity: 21,2821
[3]; flavonoid 11,98 uM, 0% occupied HSA
  Absolute fluorescence intensity: 30,3340
[3]; flavonoid 11,98 uM, 22% occupied HSA
  Absolute fluorescence intensity: 31,0510
[3]; flavonoid 11,98 uM, 38% occupied HSA
  Absolute fluorescence intensity: 30,0611
[3]; flavonoid 11,98 uM, 63% occupied HSA
  Absolute fluorescence intensity: 29,3172
[3]; flavonoid 11,98 uM, 92% occupied HSA
  Absolute fluorescence intensity: 25,1156
[3]; flavonoid 15,97 uM, 0% occupied HSA
  Absolute fluorescence intensity: 33,9655
[3]; flavonoid 15,97 uM, 22% occupied HSA
  Absolute fluorescence intensity: 33,9646
[3]; flavonoid 15,97 uM, 38% occupied HSA
  Absolute fluorescence intensity: 33,4123
[3]; flavonoid 15,97 uM, 63% occupied HSA
  Absolute fluorescence intensity: 32,2916
[3]; flavonoid 15,97 uM, 92% occupied HSA
  Absolute fluorescence intensity: 28,2109
[3]; flavonoid 23,93 uM, 0% occupied HSA
  Absolute fluorescence intensity: 38,4893
[3]; flavonoid 23,93 uM, 22% occupied HSA
  Absolute fluorescence intensity: 37,6942
[3]; flavonoid 23,93 uM, 38% occupied HSA
  Absolute fluorescence intensity: 37,3757
[3]; flavonoid 23,93 uM, 63% occupied HSA
  Absolute fluorescence intensity: 36,2415
[3]; flavonoid 23,93 uM, 92% occupied HSA
  Absolute fluorescence intensity: 32,2392
[3]; flavonoid 31,87 uM, 0% occupied HSA
  Absolute fluorescence intensity: 40,5581
[3]; flavonoid 31,87 uM, 22% occupied HSA
  Absolute fluorescence intensity: 39,7022
[3]; flavonoid 31,87 uM, 38% occupied HSA
  Absolute fluorescence intensity: 39,4192
[3]; flavonoid 31,87 uM, 63% occupied HSA
  Absolute fluorescence intensity: 37,9878
[3]; flavonoid 31,87 uM, 92% occupied HSA
  Absolute fluorescence intensity: 34,7552
[3]; flavonoid 39,80 uM, 0% occupied HSA
  Absolute fluorescence intensity: 41,9281
[3]; flavonoid 39,80 uM, 22% occupied HSA
  Absolute fluorescence intensity: 41,0854
[3]; flavonoid 39,80 uM, 38% occupied HSA
  Absolute fluorescence intensity: 41,0246
[3]; flavonoid 39,80 uM, 63% occupied HSA
  Absolute fluorescence intensity: 39,4685
[3]; flavonoid 39,80 uM, 92% occupied HSA
  Absolute fluorescence intensity: 36,6753
[3]; flavonoid 47,71 uM, 0% occupied HSA
  Absolute fluorescence intensity: 41,6617
[3]; flavonoid 47,71 uM, 22% occupied HSA
  Absolute fluorescence intensity: 41,5821
[3]; flavonoid 47,71 uM, 38% occupied HSA
  Absolute fluorescence intensity: 41,3733
[3]; flavonoid 47,71 uM, 63% occupied HSA
  Absolute fluorescence intensity: 40,4449
[3]; flavonoid 47,71 uM, 92% occupied HSA
  Absolute fluorescence intensity: 37,3158
[3]; flavonoid 63,49 uM, 0% occupied HSA
  Absolute fluorescence intensity: 40,9892
[3]; flavonoid 63,49 uM, 22% occupied HSA
  Absolute fluorescence intensity: 40,4660
[3]; flavonoid 63,49 uM, 38% occupied HSA
  Absolute fluorescence intensity: 40,7086
[3]; flavonoid 63,49 uM, 63% occupied HSA
  Absolute fluorescence intensity: 39,7702
[3]; flavonoid 63,49 uM, 92% occupied HSA
  Absolute fluorescence intensity: 38,0617
[3]; flavonoid 79,21 uM, 0% occupied HSA
  Absolute fluorescence intensity: 39,3310
[3]; flavonoid 79,21 uM, 22% occupied HSA
  Absolute fluorescence intensity: 39,3997
[3]; flavonoid 79,21 uM, 38% occupied HSA
  Absolute fluorescence intensity: 39,3849
[3]; flavonoid 79,21 uM, 63% occupied HSA
  Absolute fluorescence intensity: 38,8686
[3]; flavonoid 79,21 uM, 92% occupied HSA
  Absolute fluorescence intensity: 37,3045
[3]; flavonoid 98,77 uM, 0% occupied HSA
  Absolute fluorescence intensity: 37,4633
[3]; flavonoid 98,77 uM, 22% occupied HSA
  Absolute fluorescence intensity: 37,3641
[3]; flavonoid 98,77 uM, 38% occupied HSA
  Absolute fluorescence intensity: 37,6865
[3]; flavonoid 98,77 uM, 63% occupied HSA
  Absolute fluorescence intensity: 37,3324
[3]; flavonoid 98,77 uM, 92% occupied HSA
  Absolute fluorescence intensity: 36,3823
[1]
  Kd: 6.94 µM
[4]; flavonoid 2,00 uM
  Absolute fluorescence intensity: 0,8077
[4]; flavonoid 4,00 uM
  Absolute fluorescence intensity: 0,9540
[4]; flavonoid 7,99 uM
  Absolute fluorescence intensity: 1,1279
[4]; flavonoid 15,97 uM
  Absolute fluorescence intensity: 1,3080
[4]; flavonoid 31,87 uM
  Absolute fluorescence intensity: 1,5574
[4]; flavonoid 47,71 uM
  Absolute fluorescence intensity: 1,7477
[4]; flavonoid 63,49 uM
  Absolute fluorescence intensity: 2,0820
[4]; flavonoid 79,21 uM
  Absolute fluorescence intensity: 2,2472
[4]; flavonoid 98,77 uM
  Absolute fluorescence intensity: 2,4600

## O=c1c(O[C@@H]2O[C@H](CO)[C@@H](O)[C@H](O)[C@H]2O)c(-c2ccc(O)c(O)c2)oc2cc(O)cc(O)c12 [Isoquercitrin]
[1]
  Kd: 22.4 µM

## O=c1cc(-c2ccc(O)c(O)c2)oc2cc(O)c([C@@H]3O[C@H](CO)[C@@H](O)[C@H](O)[C@H]3O)c(O)c12 [Isoorientin]
[1]
  Kd: 21.9 µM

## O=C(O)[C@H]1O[C@@H](Oc2c(-c3ccc(O)c(O)c3)oc3cc(O)cc(O)c3c2=O)[C@H](O)[C@@H](O)[C@@H]1O
[1]
  K ± S.D. (binding constant): 5.36 ± 0.13 × 10^4 M^−1

## CC(=O)CC(c1ccccc1)c1c(O)c2ccccc2oc1=O (stereo not shown) [Warfarin]
HSA [5]
  Fraction of warfarin in blood bound to HSA: > 99%

## C[C@@H]1O[C@@H](OC[C@H]2O[C@@H](Oc3c(-c4ccc(O)c(O)c4)oc4cc(O)cc(O)c4c3=O)[C@H](O)[C@@H](O)[C@@H]2O)[C@H](O)[C@H](O)[C@H]1O [Rutin]
[1]
  Kd: 34.2 µM

## O=c1c(O[C@@H]2O[C@H](CO)[C@H](O)[C@H](O)[C@H]2O)c(-c2ccc(O)c(O)c2)oc2cc(O)cc(O)c12 [Hyperoside]
[1]
  Kd: 30.9 µM
